Assay results reported in DBAASP.
Converted amounts (≈) assume the structure as drawn. Values belong to the compound of their own block, whether it stands above or below them.

How the values were obtained:
Experiment in all cases: ≥ marks a high value that may be exact or a test limit, other limits are often not marked, values filed in µg/mL are converted to µM
[1] = test system: Staphylococcus aureus ATCC 6538
[2] = test system: Escherichia coli ATCC 11219
[3] = test system: Salmonella enterica subsp. enterica serovar Typhimurium ATCC 14028
[4] = test system: Klebsiella pneumoniae ATCC 10031
[5] = test system: Pseudomonas aeruginosa ATCC 13388
[6] = test system: Candida albicans 08032815
[7] = test system: Candida albicans 08022710
[8] = test system: Candida albicans 08030809
[9] = test system: Candida albicans 08022821
Bacillus subtilis = test system: Bacillus subtilis
[10] = test system: Candida albicans ATCC 2002
[11] = test system: Staphylococcus aureus ATCC 2592
[12] = test system: Escherichia coli ATCC 25922
[13] = test system: Acinetobacter johnsonii NCDC 0072
[14] = test system: Escherichia coli MTCC 0723
[15] = test system: Pseudomonas aeruginosa ATCC 27853
[16] = test system: Listeria monocytogenes ATCC 19111
[17] = test system: Staphylococcus aureus NCDC 0111
[18] = test system: Bacillus cereus NCDC 0240
[19] = test system: Pseudomonas aeruginosa NCDC 0105
[20] = test system: Staphylococcus aureus ATCC 29213
[21] = test system: Escherichia coli BW25113 ΔsbmA
Escherichia coli BW25113 = test system: Escherichia coli BW25113
[22] = test system: Escherichia coli BW25113 ΔwaaG
Staphylococcus aureus 38 = test system: Staphylococcus aureus 38
[23] = test system: Pseudomonas aeruginosa ATCC 19660
[24] = test system: Pseudomonas aeruginosa 6294
Staphylococcus aureus 31 = test system: Staphylococcus aureus 31
[25] = test system: Pseudomonas aeruginosa 6206
[26] = test system: Pseudomonas aeruginosa 37
Candida albicans = test system: Candida albicans
[27] = test system: Mycobacterium tuberculosis
Candida glabrata = test system: Candida glabrata
Streptococcus agalactiae = test system: Streptococcus agalactiae
[28] = test system: Pseudomonas aeruginosa ATCC 9027
[29] = test system: Mycobacterium tuberculosis H37Rv
[30] = test system: Staphylococcus aureus ATCC 25923
[31] = test system: Cryptococcus neoformans var. grubii H99
[32] = test system: Escherichia coli DH5alpha
[33] = test system: Xanthomonas campestris pv. campestris
[34] = test system: Xanthomonas oryzae pv. oryzae
Candida albicans SC5314 = test system: Candida albicans SC5314

Structure (SMILES): CC(C)[C@H](N)C(=O)N[C@@H](CCCCN)C(=O)N[C@@H](CCCN=C(N)N)C(=O)N[C@@H](Cc1c[nH]c2ccccc12)C(=O)N[C@@H](CCCCN)C(=O)N[C@@H](CCCCN)C(=O)N[C@@H](Cc1c[nH]c2ccccc12)C(=O)N[C@@H](CCCN=C(N)N)C(=O)N[C@@H](Cc1c[nH]c2ccccc12)C(=O)N[C@@H](CCCCN)C(=O)N[C@@H](Cc1c[nH]c2ccccc12)C(=O)N[C@@H](CCCCN)C(=O)N[C@@H](CCCCN)C(=O)N[C@@H](Cc1c[nH]c2ccccc12)C(=O)N[C@H](C(N)=O)C(C)C [VKRWKKWRWKWKKWV]
- MIC [6]: 1.25 µM (≈ 2.79 µg/mL)
- MIC [7]: 2.1 µM (≈ 4.69 µg/mL)
- MIC [8]: 0.628 µM (≈ 1.4 µg/mL)
- MIC [9]: 1.4 µM (≈ 3.13 µg/mL)
- MIC (Bacillus subtilis): 0.525 µM (≈ 1.17 µg/mL)
- MIC [10]: 0.265 µM (≈ 0.59 µg/mL)
- MIC [11]: 0.525 µM (≈ 1.17 µg/mL)
- MIC [12]: 4.21 µM (≈ 9.38 µg/mL)

Structure (SMILES): CC[C@H](C)[C@H](NC(=O)[C@H](CC(C)C)NC(=O)[C@H](CO)NC(=O)[C@@H]1CCCN1C(=O)[C@@H](NC(=O)[C@H](C)NC(=O)[C@H](CCCCN)NC(=O)[C@H](CCSC)NC(=O)[C@H](C)NC(=O)[C@H](CC(C)C)NC(=O)[C@H](CCCCN)NC(=O)CNC(=O)[C@H](CC(C)C)NC(=O)[C@H](Cc1ccccc1)NC(=O)CNC(=O)[C@H](Cc1c[nH]c2ccccc12)NC(=O)[C@@H](N)Cc1ccccc1)C(C)C)C(=O)NCC(=O)NCC(=O)N[C@@H](CC(N)=O)C(=O)N[C@@H](CCCCN)C(=O)N[C@@H](CO)C(=O)N[C@@H](CO)C(=O)N[C@@H](CO)C(=O)N[C@@H](CCCCN)C(=O)O [FWGFLGKLAMKAVPSLIGGNKSSSK]
- MIC (Candida albicans): 12.5 µM (≈ 32.8 µg/mL)
- MIC [27]: 30.5 µM (≈ 80 µg/mL)
- MIC (Candida glabrata): ≥ 50 µM
- MIC (Streptococcus agalactiae): 15 µM (≈ 39.4 µg/mL)
- MIC [28]: 15 µM (≈ 39.4 µg/mL)
- MIC [12]: 24 µM (≈ 63 µg/mL)
- MIC [29]: 21.4 µM (≈ 56.2 µg/mL)
- MIC [30]: 10 µM (≈ 26.2 µg/mL)

Structure (SMILES): CC(C)C[C@H](NC(=O)CNC(=O)[C@H](CS)NC(=O)CNC(=O)[C@H](CC(N)=O)NC(=O)CNC(=O)[C@H](Cc1c[nH]c2ccccc12)NC(=O)CNC(=O)[C@H](CCCN=C(N)N)NC(=O)[C@H](CC(=O)O)NC(=O)[C@@H](N)C(C)C)C(=O)N[C@@H](Cc1ccccc1)C(=O)NCC(=O)N[C@@H](CCCCN)C(=O)NCC(=O)NCC(=O)O [VDRGWGNGCGLFGKGG]
- MIC [31]: ≥ 100 µM
- MIC [32]: ≥ 100 µM
- MIC (Bacillus subtilis): ≥ 100 µM
- MIC [33]: ≥ 100 µM
- MIC [15]: > 100 µM
- MIC [34]: ≥ 100 µM
- MIC (Candida albicans SC5314): ≥ 100 µM

Now from value to compound:

- MIC [1]: 5 µM (≈ 6.41 µg/mL)
- MIC [2]: ≥ 50 µM
- MIC [3]: > 50 µM
- MIC [4]: 30 µM (≈ 38.5 µg/mL)
- MIC [5]: ≥ 50 µM
Structure (SMILES): CC[C@H](C)[C@H](NC(=O)CN)C(=O)N[C@@H](Cc1cnc[nH]1)C(=O)N[C@@H](C)C(=O)N[C@H](C(=O)N[C@@H](CC(C)C)C(=O)N[C@@H](CCCCN)C(=O)N[C@@H](Cc1ccc(O)cc1)C(=O)NCC(=O)N[C@@H](CCCCN)C(=O)N1CCC[C@H]1C(=O)N[C@@H](CO)C(N)=O)[C@@H](C)CC [GIHAILKYGKPS]

- MIC [3]: 100 µM (≈ 177 µg/mL)
- MIC [13]: ≥ 200 µM
- MIC [14]: ≥ 200 µM
- MIC [15]: > 200 µM
- MIC [16]: 6 µM (≈ 10.6 µg/mL)
- MIC [17]: 25 µM (≈ 44.4 µg/mL)
- MIC [18]: ≥ 100 µM
- MIC [19]: ≥ 200 µM
- MIC [20]: 3 µM (≈ 5.32 µg/mL)
Structure (SMILES): CC[C@H](C)[C@H](NC(=O)[C@H](Cc1c[nH]c2ccccc12)NC(=O)[C@@H]1CCCN1C(=O)[C@H](CC(C)C)NC(=O)CN)C(=O)N[C@@H](CC(C)C)C(=O)N[C@@H](CC(C)C)C(=O)N[C@@H](CCCN=C(N)N)C(=O)N[C@@H](Cc1c[nH]c2ccccc12)C(=O)N[C@@H](CC(C)C)C(=O)N[C@@H](Cc1ccccc1)C(=O)N[C@@H](Cc1ccccc1)C(=O)N[C@@H](CCCN=C(N)N)C(=O)NCC(=O)O [GLPWILLRWLFFRG]

- MIC [21]: ≥ 32 µM
- MIC [12]: 8 µM (≈ 20.7 µg/mL)
- MIC (Escherichia coli BW25113): 8 µM (≈ 20.7 µg/mL)
- MIC [22]: 4 µM (≈ 10.3 µg/mL)
Structure (SMILES): CC[C@H](C)[C@H](N)C(=O)N[C@@H](CCCN=C(N)N)C(=O)N1CCC[C@H]1C(=O)N[C@@H](CCCN=C(N)N)C(=O)N1CCC[C@H]1C(=O)N1CCC[C@H]1C(=O)N[C@@H](CCCN=C(N)N)C(=O)N[C@@H](CC(C)C)C(=O)N1CCC[C@H]1C(=O)N[C@@H](CCCN=C(N)N)C(=O)N1CCC[C@H]1C(=O)N[C@@H](CCCN=C(N)N)C(=O)N1CCC[C@H]1C(=O)N[C@@H](CCCN=C(N)N)C(=O)N1CCC[C@H]1C(=O)N[C@@H](CC(C)C)C(=O)N1CCC[C@H]1C(=O)N[C@@H](Cc1ccc(O)cc1)C(=O)N1CCC[C@H]1C(=O)N[C@@H](CCCN=C(N)N)C(=O)N1CCC[C@H]1C(=O)O [IRPRPPRLPRPRPRPLPYPRP]

- MIC (Staphylococcus aureus 38): ≥ 33 µM
- MIC [23]: ≥ 132 µM
- MIC [1]: 16.5 µM (≈ 62.5 µg/mL)
- MIC [24]: ≥ 66 µM
- MIC (Staphylococcus aureus 31): ≥ 33 µM
- MIC [25]: ≥ 66 µM
- MIC [26]: ≥ 33 µM
Structure (SMILES): CC[C@H](C)[C@H](NC(=O)[C@H](Cc1c[nH]c2ccccc12)NC(=O)[C@H](CO)NC(=O)[C@@H](NC(=O)[C@H](CC(C)C)NC(=O)[C@@H](N)[C@@H](C)O)[C@@H](C)CC)C(=O)N[C@@H](CCCCN)C(=O)N[C@@H](CC(N)=O)C(=O)N[C@@H](CCCCN)C(=O)N[C@@H](CCCN=C(N)N)C(=O)N[C@@H](CCCCN)C(=O)N[C@@H](CCC(N)=O)C(=O)N[C@@H](CCCN=C(N)N)C(=O)N1CCC[C@H]1C(=O)N[C@@H](CCCN=C(N)N)C(=O)N[C@H](C(=O)N[C@@H](CO)C(=O)N[C@@H](CCCN=C(N)N)C(=O)N[C@@H](CCCN=C(N)N)C(=O)N[C@@H](CCCN=C(N)N)C(=O)N[C@@H](CCCN=C(N)N)C(=O)N[C@@H](CCCN=C(N)N)C(=O)N[C@@H](CCCN=C(N)N)C(=O)NCC(=O)NCC(=O)N[C@@H](CCCN=C(N)N)C(=O)N[C@@H](CCCN=C(N)N)C(=O)N[C@@H](CCCN=C(N)N)C(=O)N[C@@H](CCCN=C(N)N)C(=O)O)C(C)C [TLISWIKNKRKQRPRVSRRRRRRGGRRRR]
